Experimental data taken from PubChem BioAssay AID330 (DTP/NCI, 2004).
Where “and” joins values, the source holds several entries; their conditions need not be identical. Equal entries are not always repeated. Toxic doses and inconclusive results are not listed.

Tested on: P388 leukemia ip, CD2F1 mice, survival T/C
Test: NCI In Vivo Anticancer Drug Screen. Data for tumor model P388 Leukemia (intraperitoneal) in CD2F1 (CDF1) mice
Settings: endpoint: median survival time, higher = longer survival
Method in brief: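 Mice carrying the transplanted tumor received test compound or vehicle. Survival was recorded in each group, and the value is the treated-group measurement divided by that of the vehicle-treated control group.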

[1] = dose: 50.0 mg/kg/injection, schedule: Q01DX005 (ip), vehicle: Klucel (hydroxypropylcellulose) (HPC)
[2] = dose: 100.0 mg/kg/injection, schedule: Q01DX005 (ip), vehicle: Klucel (hydroxypropylcellulose) (HPC)
[3] = dose: 200.0 mg/kg/injection, schedule: Q01DX005 (ip), vehicle: Klucel (hydroxypropylcellulose) (HPC)
[4] = dose: 6.25 mg/kg/injection, schedule: Q01DX009 (ip), vehicle: saline
[5] = dose: 12.5 mg/kg/injection, schedule: Q01DX009 (ip), vehicle: saline
[6] = dose: 50.0 mg/kg/injection, schedule: Q01DX009 (ip), vehicle: saline with Tween-80
[7] = dose: 100.0 mg/kg/injection, schedule: Q01DX009 (ip), vehicle: saline with Tween-80
[8] = dose: 200.0 mg/kg/injection, schedule: Q01DX009 (ip), vehicle: saline with Tween-80
[9] = dose: 50.0 mg/kg/injection, schedule: Q01DX005 (ip), vehicle: saline with Tween-80
[10] = dose: 100.0 mg/kg/injection, schedule: Q01DX005 (ip), vehicle: saline with Tween-80
[11] = dose: 200.0 mg/kg/injection, schedule: Q01DX005 (ip), vehicle: saline with Tween-80
[12] = dose: 50.0 mg/kg/injection, schedule: Q01DX009 (ip), vehicle: Klucel (hydroxypropylcellulose) (HPC)
[13] = dose: 50.0 mg/kg/injection, schedule: Q01DX009 (ip), vehicle: saline
[14] = dose: 100.0 mg/kg/injection, schedule: Q01DX009 (ip), vehicle: saline
[15] = dose: 200.0 mg/kg/injection, schedule: Q01DX009 (ip), vehicle: saline
[16] = dose: 100.0 mg/kg/injection, schedule: Q01DX001 (ip), vehicle: Klucel (hydroxypropylcellulose) (HPC)
[17] = dose: 200.0 mg/kg/injection, schedule: Q01DX001 (ip), vehicle: Klucel (hydroxypropylcellulose) (HPC)
[18] = dose: 100.0 mg/kg/injection, schedule: Q01DX009 (ip), vehicle: Klucel (hydroxypropylcellulose) (HPC)
[19] = dose: 200.0 mg/kg/injection, schedule: Q01DX009 (ip), vehicle: Klucel (hydroxypropylcellulose) (HPC)
[20] = dose: 60.0 mg/kg/injection, schedule: Q01DX005 (ip), vehicle: saline with Tween-80
[21] = dose: 120.0 mg/kg/injection, schedule: Q01DX005 (ip), vehicle: saline with Tween-80
[22] = dose: 100.0 mg/kg/injection, schedule: Q04DX003 (ip), vehicle: Klucel (hydroxypropylcellulose) (HPC)
[23] = dose: 25.0 mg/kg/injection, schedule: Q01DX009 (ip), vehicle: saline

## N/C(=N\S(=O)(=O)c1ccccc1)[N+](=O)[O-]
[1]
  T/C: 102 % of control
[2]
  T/C: 102 % of control
[3]
  T/C: 98 % of control

## c1ccc([P+](NCCN[P+](c2ccccc2)(c2ccccc2)c2ccccc2)(c2ccccc2)c2ccccc2)cc1
[4]
  T/C: 97 % of control
[5]
  T/C: 100 % of control

## CCCCC/C=C/C/C=C\CCCCCCCC(=O)NC(Cc1ccc(C)cc1)c1ccccc1 (stereo unspecified)
[6]
  T/C: 98 % of control
[7]
  T/C: 100 % of control
[8]
  T/C: 100 % of control

## O=C1CN(CCO)CC(=O)N2Cc3ccccc3CN12
[9]
  T/C: 101 % of control
[10]
  T/C: 111 % of control
[11]
  T/C: 103 % of control

## C1CCNCC1.O=C([CH-]C(=O)C(F)(F)F)c1ccc2c(c1)C(=O)c1ccccc1-2.O=C([CH-]C(=O)C(F)(F)F)c1ccc2c(c1)C(=O)c1ccccc1-2.O=C([CH-]C(=O)C(F)(F)F)c1ccc2c(c1)C(=O)c1ccccc1-2.O=C([CH-]C(=O)C(F)(F)F)c1ccc2c(c1)C(=O)c1ccccc1-2.[Eu+3]
dose: 12.5 mg/kg/injection, schedule: Q01DX009 (ip), vehicle: Klucel (hydroxypropylcellulose) (HPC)
  T/C: 112 % of control
dose: 25.0 mg/kg/injection, schedule: Q01DX009 (ip), vehicle: Klucel (hydroxypropylcellulose) (HPC)
  T/C: 111 % of control
[12]
  T/C: 110 % of control

## COc1cc(N=Nc2c(Cl)cc([N+](=O)[O-])cc2Cl)c([OH+]C)cc1[N+]#N.COc1cc(N=Nc2c(Cl)cc([N+](=O)[O-])cc2Cl)c([OH+]C)cc1[N+]#N.[Cl][Zn][Cl]
[13]
  T/C: 111 % of control and 115 % of control
[14]
  T/C: 120 % of control and 122 % of control
[15]
  T/C: 119 % of control and 124 % of control
dose: 400.0 mg/kg/injection, schedule: Q01DX009 (ip), vehicle: saline
  T/C: 119 % of control

## CN(/N=C\c1ccccc1)C(=N)N(C)/N=C/c1ccccc1
[16]
  T/C: 91 % of control
[17]
  T/C: 96 % of control

## CCOC(=O)c1cnc2ncccn12
[12]
  T/C: 99 % of control
[18]
  T/C: 101 % of control
[19]
  T/C: 91 % of control

## Cc1c(O)c(=O)ccn1C1OC(CO)C(O)C1O (stereo unspecified)
dose: 25.0 mg/kg/injection, schedule: Q01DX005 (ip), vehicle: saline
  T/C: 99 % of control
dose: 50.0 mg/kg/injection, schedule: Q01DX005 (ip), vehicle: saline
  T/C: 104 % of control
dose: 100.0 mg/kg/injection, schedule: Q01DX005 (ip), vehicle: saline
  T/C: 99 % of control
dose: 200.0 mg/kg/injection, schedule: Q01DX005 (ip), vehicle: saline
  T/C: 104 % of control
dose: 400.0 mg/kg/injection, schedule: Q01DX005 (ip), vehicle: saline
  T/C: 105 % of control

## CCN(CC)C(=O)c1c(OC)cc(C)cc1C(O)c1cc(OC)cc(OC)c1 (stereo unspecified)
[9]
  T/C: 99 % of control
[10]
  T/C: 99 % of control
[11]
  T/C: 96 % of control

## CC1(O)OC(COc2ccc(Cl)cc2)COC1O (stereo unspecified)
[20]
  T/C: 112 % of control
[21]
  T/C: 103 % of control

## N#Cc1c(N)nc2c(c1N)CCO2
[6]
  T/C: 93 % of control
[7]
  T/C: 96 % of control
[8]
  T/C: 99 % of control

## COc1ccc(C(Cc2ccccc2)NCCNCCO)cc1 (stereo unspecified)
[1]
  T/C: 101 % of control
[2]
  T/C: 101 % of control

## CC(N)CN1CC(C)N=C1c1ccncc1 (stereo unspecified)
[13]
  T/C: 102 % of control
[14]
  T/C: 98 % of control
[15]
  T/C: 99 % of control

## COc1ccc(/C(C#N)=C2\OC(=O)c3ccccc32)cc1OC
dose: 6.25 mg/kg/injection, schedule: Q01DX009 (ip), vehicle: saline with Tween-80
  T/C: 97 % of control
dose: 12.5 mg/kg/injection, schedule: Q01DX009 (ip), vehicle: saline with Tween-80
  T/C: 89 % of control
[6]
  T/C: 90 % of control
dose: 400.0 mg/kg/injection, schedule: Q01DX009 (ip), vehicle: saline with Tween-80
  T/C: 90 % of control

## O=C1C2CCCC1C(c1ccc(Cl)cc1)NC2c1ccc(Cl)cc1 (stereo unspecified)
dose: 100.0 mg/kg/injection, schedule: Q04DX003 (ip), vehicle: saline
  T/C: 103 % of control
dose: 200.0 mg/kg/injection, schedule: Q04DX003 (ip), vehicle: saline
  T/C: 103 % of control
dose: 400.0 mg/kg/injection, schedule: Q04DX003 (ip), vehicle: saline
  T/C: 96 % of control

## CSc1nc(C)cc(N)n1
dose: 12.5 mg/kg/injection, schedule: Q04DX003 (ip), vehicle: Klucel (hydroxypropylcellulose) (HPC)
  T/C: 115 % of control
dose: 25.0 mg/kg/injection, schedule: Q04DX003 (ip), vehicle: Klucel (hydroxypropylcellulose) (HPC)
  T/C: 99 % of control
dose: 50.0 mg/kg/injection, schedule: Q04DX003 (ip), vehicle: Klucel (hydroxypropylcellulose) (HPC)
  T/C: 99 % of control
[22]
  T/C: 103 % of control

## CC1(C)N=C(N)N=C(N)N1c1ccc(OCCCCNC(=O)c2ccc(S(=O)(=O)F)cc2)c(Cl)c1
dose: 25.0 mg/kg/injection, schedule: Q01DX009 (ip), vehicle: saline with Tween-80
  T/C: 150 % of control
[23]
  T/C: 161 % of control
[13]
  T/C: 159 % of control

## N#CCN=NNc1ccc([N+](=O)[O-])cc1
[16]
  T/C: 115 % of control
[17]
  T/C: 107 % of control
dose: 400.0 mg/kg/injection, schedule: Q01DX001 (ip), vehicle: Klucel (hydroxypropylcellulose) (HPC)
  T/C: 116 % of control

## Nc1nnc(SCCCCCCCCCCCCSc2nnc(N)s2)s1
dose: 12.5 mg/kg/injection, schedule: Q01DX005 (ip), vehicle: Klucel (hydroxypropylcellulose) (HPC)
  T/C: 91 % of control
dose: 25.0 mg/kg/injection, schedule: Q01DX005 (ip), vehicle: Klucel (hydroxypropylcellulose) (HPC)
  T/C: 90 % of control
[1]
  T/C: 89 % of control
[3]
  T/C: 86 % of control

## CCS(=O)(=O)C(=O)N1CCN(C(=O)S(=O)(=O)CC)CC1
[12]
  T/C: 98 % of control
[18]
  T/C: 100 % of control
[19]
  T/C: 106 % of control

## COc1ccc(S(=O)(=O)F)cc1C(=O)O
[20]
  T/C: 114 % of control
[21]
  T/C: 112 % of control
dose: 240.0 mg/kg/injection, schedule: Q01DX005 (ip), vehicle: saline with Tween-80
  T/C: 104 % of control

## CC1(C)CC(OC(=O)Oc2c3ccccc3c3ccc4cccc5ccc2c3c54)CC(C)(C)N1O
[6]
  T/C: 97 % of control
[7]
  T/C: 97 % of control
[8]
  T/C: 103 % of control

## COC(=O)c1ccc(N(C)CC/C(CN)=N/NC(N)=O)cc1
[9]
  T/C: 99 % of control
[10]
  T/C: 91 % of control
[11]
  T/C: 87 % of control

## Nc1cc(Cl)cc2c1-c1ccc(Cl)cc1C2
[1]
  T/C: 93 % of control
[2]
  T/C: 93 % of control
[3]
  T/C: 94 % of control

## COc1ccc(C2(O)c3ccccc3C(=O)c3ccccc32)cc1
[1]
  T/C: 95 % of control
[2]
  T/C: 96 % of control
[3]
  T/C: 107 % of control

## CCN(CC)CCNc1cc(Nc2ccc([N+](=O)[O-])cc2)ccc1OC
dose: 12.5 mg/kg/injection, schedule: Q01DX005 (ip), vehicle: saline with Tween-80
  T/C: 108 % of control
dose: 25.0 mg/kg/injection, schedule: Q01DX005 (ip), vehicle: saline with Tween-80
  T/C: 106 % of control
[9]
  T/C: 99 % of control
[11]
  T/C: 87 % of control

## COC(=O)C1c2c(C)cc3n2C(C=CC3)C1C(=O)OC (stereo unspecified)
[22]
  T/C: 94 % of control
dose: 200.0 mg/kg/injection, schedule: Q04DX003 (ip), vehicle: Klucel (hydroxypropylcellulose) (HPC)
  T/C: 93 % of control
dose: 400.0 mg/kg/injection, schedule: Q04DX003 (ip), vehicle: Klucel (hydroxypropylcellulose) (HPC)
  T/C: 101 % of control

## CCOC(=O)C1=C(C(C)=O)C(c2ccc([N+](=O)[O-])cc2)C(C(C)=O)=C(C(=O)OCC)N1
dose: 7.5 mg/kg/injection, schedule: Q01DX005 (ip), vehicle: Klucel (hydroxypropylcellulose) (HPC)
  T/C: 101 % of control
dose: 15.0 mg/kg/injection, schedule: Q01DX005 (ip), vehicle: Klucel (hydroxypropylcellulose) (HPC)
  T/C: 104 % of control
dose: 30.0 mg/kg/injection, schedule: Q01DX005 (ip), vehicle: Klucel (hydroxypropylcellulose) (HPC)
  T/C: 102 % of control

## Cc1ccc(S(=O)(=O)c2ccc(Sc3cccc[n+]3[O-])c3nonc23)cc1
[4]
  T/C: 103 % of control
[5]
  T/C: 116 % of control
dose: 12.5 mg/kg/injection, schedule: Q01DX009 (ip), vehicle: suspension in saline
  T/C: 110 % of control
[23]
  T/C: 100 % of control
dose: 25.0 mg/kg/injection, schedule: Q01DX009 (ip), vehicle: suspension in saline
  T/C: 121 % of control
[13]
  T/C: 103 % of control
